In the NIST ThermoML archive (doi:10.1016/j.jct.2007.04.005):
Numbers after ± are expanded uncertainties.

Assay: xn = mol fraction of the nth substance listed
Conditions: 318.15 K, Liquid

CCCCCCCCC [nonane] + C1CCCCC1
Conditions | mass density [kg/m3]
100 kPa, x2 = 0 | 698.2 ± 0.7
100 kPa, x2 = 0.09303 | 701 ± 0.7
100 kPa, x2 = 0.2009 | 704.8 ± 0.7
100 kPa, x2 = 0.3051 | 708.8 ± 0.7
100 kPa, x2 = 0.417 | 713.5 ± 0.6
100 kPa, x2 = 0.512 | 718 ± 0.6
100 kPa, x2 = 0.5996 | 722.8 ± 0.6
100 kPa, x2 = 0.7052 | 729.3 ± 0.6
100 kPa, x2 = 0.7993 | 736.2 ± 0.6
100 kPa, x2 = 0.9039 | 744.9 ± 0.6
101 kPa, x2 = 0 | 698.48 ± 0.69
101 kPa, x2 = 0.1022 | 701.67 ± 0.67
101 kPa, x2 = 0.1548 | 703.43 ± 0.67
101 kPa, x2 = 0.2009 | 705.04 ± 0.66
101 kPa, x2 = 0.2591 | 707.2 ± 0.65
101 kPa, x2 = 0.3306 | 710.05 ± 0.64
101 kPa, x2 = 0.4003 | 713.04 ± 0.62
101 kPa, x2 = 0.4596 | 715.79 ± 0.62
101 kPa, x2 = 0.5321 | 719.42 ± 0.6
101 kPa, x2 = 0.612 | 723.86 ± 0.59
101 kPa, x2 = 0.6649 | 727.05 ± 0.58
101 kPa, x2 = 0.7224 | 730.84 ± 0.57
101 kPa, x2 = 0.8047 | 736.83 ± 0.56
101 kPa, x2 = 0.8686 | 742.07 ± 0.54
101 kPa, x2 = 0.9405 | 748.72 ± 0.53
2130 kPa, x2 = 0 | 699.9 ± 0.8
2130 kPa, x2 = 0.09303 | 702.7 ± 0.8
2130 kPa, x2 = 0.2009 | 706.5 ± 0.8
2130 kPa, x2 = 0.3051 | 710.6 ± 0.8
2130 kPa, x2 = 0.417 | 715.2 ± 0.7
2130 kPa, x2 = 0.512 | 719.8 ± 0.7
2130 kPa, x2 = 0.5996 | 724.6 ± 0.7
2130 kPa, x2 = 0.7052 | 731.1 ± 0.7
2130 kPa, x2 = 0.7993 | 738 ± 0.7
2130 kPa, x2 = 0.9039 | 746.7 ± 0.6
4150 kPa, x2 = 0 | 701.8 ± 0.9
4150 kPa, x2 = 0.09303 | 704.7 ± 0.9
4150 kPa, x2 = 0.2009 | 708.4 ± 0.9
4150 kPa, x2 = 0.3051 | 712.5 ± 0.8
4150 kPa, x2 = 0.417 | 717.2 ± 0.8
4150 kPa, x2 = 0.512 | 721.7 ± 0.8
4150 kPa, x2 = 0.5996 | 726.6 ± 0.8
4150 kPa, x2 = 0.7052 | 733.1 ± 0.8
4150 kPa, x2 = 0.7993 | 740 ± 0.7
4150 kPa, x2 = 0.9039 | 748.7 ± 0.7
6180 kPa, x2 = 0 | 703.6 ± 1
6180 kPa, x2 = 0.09303 | 706.4 ± 1
6180 kPa, x2 = 0.2009 | 710.2 ± 0.9
6180 kPa, x2 = 0.3051 | 714.3 ± 0.9
6180 kPa, x2 = 0.417 | 719 ± 0.9
6180 kPa, x2 = 0.512 | 723.6 ± 0.9
6180 kPa, x2 = 0.5996 | 728.4 ± 0.9
6180 kPa, x2 = 0.7052 | 734.9 ± 0.8
6180 kPa, x2 = 0.7993 | 741.8 ± 0.8
6180 kPa, x2 = 0.9039 | 750.6 ± 0.8
8210 kPa, x2 = 0 | 705.3 ± 1.1
8210 kPa, x2 = 0.09303 | 708.2 ± 1
8210 kPa, x2 = 0.2009 | 712 ± 1
8210 kPa, x2 = 0.3051 | 716.1 ± 1
8210 kPa, x2 = 0.417 | 720.7 ± 1
8210 kPa, x2 = 0.512 | 725.3 ± 1
8210 kPa, x2 = 0.5996 | 730.2 ± 0.9
8210 kPa, x2 = 0.7052 | 736.7 ± 0.9
8210 kPa, x2 = 0.7993 | 743.6 ± 0.9
8210 kPa, x2 = 0.9039 | 752.4 ± 0.9
10230 kPa, x2 = 0 | 707 ± 1.2
10230 kPa, x2 = 0.09303 | 709.9 ± 1.1
10230 kPa, x2 = 0.2009 | 713.7 ± 1.1
10230 kPa, x2 = 0.3051 | 717.8 ± 1.1
10230 kPa, x2 = 0.417 | 722.5 ± 1.1
10230 kPa, x2 = 0.512 | 727 ± 1
10230 kPa, x2 = 0.5996 | 731.9 ± 1
10230 kPa, x2 = 0.7052 | 738.5 ± 1
10230 kPa, x2 = 0.7993 | 745.4 ± 1
10230 kPa, x2 = 0.9039 | 754.2 ± 0.9
11250 kPa, x2 = 0 | 707.8 ± 1.2
11250 kPa, x2 = 0.09303 | 710.7 ± 1.2
11250 kPa, x2 = 0.2009 | 714.5 ± 1.2
11250 kPa, x2 = 0.3051 | 718.6 ± 1.1
11250 kPa, x2 = 0.417 | 723.3 ± 1.1
11250 kPa, x2 = 0.512 | 727.9 ± 1.1
11250 kPa, x2 = 0.5996 | 732.8 ± 1.1
11250 kPa, x2 = 0.7052 | 739.4 ± 1
11250 kPa, x2 = 0.7993 | 746.3 ± 1
11250 kPa, x2 = 0.9039 | 755.1 ± 1
12260 kPa, x2 = 0 | 708.6 ± 1.2
12260 kPa, x2 = 0.09303 | 711.6 ± 1.2
12260 kPa, x2 = 0.2009 | 715.4 ± 1.2
12260 kPa, x2 = 0.3051 | 719.5 ± 1.2
12260 kPa, x2 = 0.417 | 724.2 ± 1.1
12260 kPa, x2 = 0.512 | 728.8 ± 1.1
12260 kPa, x2 = 0.5996 | 733.7 ± 1.1
12260 kPa, x2 = 0.7052 | 740.3 ± 1.1
12260 kPa, x2 = 0.7993 | 747.1 ± 1
12260 kPa, x2 = 0.9039 | 756 ± 1
14290 kPa, x2 = 0 | 710.3 ± 1.3
14290 kPa, x2 = 0.09303 | 713.2 ± 1.3
14290 kPa, x2 = 0.2009 | 717 ± 1.3
14290 kPa, x2 = 0.3051 | 721.1 ± 1.2
14290 kPa, x2 = 0.417 | 725.8 ± 1.2
14290 kPa, x2 = 0.512 | 730.4 ± 1.2
14290 kPa, x2 = 0.5996 | 735.3 ± 1.2
14290 kPa, x2 = 0.7052 | 741.9 ± 1.1
14290 kPa, x2 = 0.7993 | 748.9 ± 1.1
14290 kPa, x2 = 0.9039 | 757.7 ± 1.1
16310 kPa, x2 = 0 | 711.9 ± 1.4
16310 kPa, x2 = 0.09303 | 714.8 ± 1.4
16310 kPa, x2 = 0.2009 | 718.7 ± 1.4
16310 kPa, x2 = 0.3051 | 722.7 ± 1.3
16310 kPa, x2 = 0.417 | 727.5 ± 1.3
16310 kPa, x2 = 0.512 | 732 ± 1.3
16310 kPa, x2 = 0.5996 | 737 ± 1.2
16310 kPa, x2 = 0.7052 | 743.6 ± 1.2
16310 kPa, x2 = 0.7993 | 750.5 ± 1.2
16310 kPa, x2 = 0.9039 | 759.4 ± 1.1
18340 kPa, x2 = 0 | 713.5 ± 1.5
18340 kPa, x2 = 0.09303 | 716.4 ± 1.5
18340 kPa, x2 = 0.2009 | 720.2 ± 1.4
18340 kPa, x2 = 0.3051 | 724.3 ± 1.4
18340 kPa, x2 = 0.417 | 729.1 ± 1.4
18340 kPa, x2 = 0.512 | 733.6 ± 1.3
18340 kPa, x2 = 0.5996 | 738.6 ± 1.3
